Data on 1 molecule can be found in US20040062782A1, “Addition of insect repellent during rinse cycle” (priority 2002, published 2004).

The structures appear in SMILES notation.

The subject of this assay is insects. Briefly: Insect repellence of articles treated with DEET during the rinse cycle of an automated washing machine. Format: in vivo. On the procedure: The present invention centers around adding a insect repellent to articles during the rinse cycle of a washing machine. During the rinse cycle, detergent and stains are dissolved into the fluid medium, while the insect repellent is added to the fluid medium and disseminates throughout the fluid medium and articles within the washing machine and is retained by the contents of the washing machine as the fluid medium is partially removed. As the damp articles are removed from the washing machine and subsequently dried, the insect repellent is retained therein as the fluid medium is removed. While there are various application rates of DEET that produce the desired effect of repelling insects from articles under different conditions, it has been found sufficient to provide along the order of 1 fluid ounce of DEET to the articles during the rinse cycle of an automated washing machine. […] It is also within the scope and spirit of the present invention to add […] more than 1 fluid ounce to increase the concentration of DEET retained by the articles after the rinse cycle is complete. For example, if the articles may be exposed to elevated temperatures for an extended period, say 2 hours or more, the amount of DEET added during the rinse cycle may be higher to compensate for the higher amount of DEET emanating from the articles at the elevated temperatures. […] However, higher or lower ratios may be utilized depending upon the conditions of intended use of the articles or the intended duration of insect repellence. As discussed above, the ratio may be […] along the lines of 1:1 to 2:1 to impart insect repellence in accordance with increased exposure to elevated temperatures, and/or to provide insect repellence during a longer duration.

Regarding `CCN(CC)C(=O)c1cccc(C)c1` [DEET, N,N-diethyl-m-toluamide], the “insect repellence (duration) while the article is being used” value (on the order of 1 fluid ounce of DEET added to the articles during the rinse cycle, article in use) is given as “approximately 24 hours”. In addition, the “extended insect repellence (duration) for stored articles” value (on the order of 1 fluid ounce of DEET added to the articles during the rinse cycle, stored articles) is “approximately one month”. Moreover, where the note is “ratio of 4:1 to 5:1 (in fluid ounces) of fabric softener and/or other components to DEET, added to the rinse cycle”, the “repelling insects from the articles” value is given as “provides the desired effect of repelling insects from the articles”.
